Reference: ChEMBL document CHEMBL1201862, “PubChem BioAssay data set” (2004)
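In this assay, cells in 96-well plates receive the compound at five concentrations for 48 hours. Endpoints are linearly interpolated between the surrounding concentrations. GI50 is the concentration that inhibits growth by half.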 Activity calls are given as the source filed them. Rule as the data show it: active = GI50 up to about 1.1 µM and inactive = higher. Where a SMILES comes first, the peptide text is derived from it. [ ]: non-standard residue; d: D form. The star is where a group is joined. Hyp = O=C(O)[CH]1C[CH](O)CN1; Cbz = O=C(OCc1ccccc1)*

Tests used:
Assay in all cases: NCI tumour cell line growth inhibition, 48 h
A549 = test system: A549
ACHN = test system: ACHN
CAKI-1 = test system: CAKI-1
HT-29 = test system: HT-29
Hs-578T = test system: Hs-578T
M14 = test system: M14
MDA-MB-231 = test system: MDA-MB-231
MDA-N = test system: MDA-N
NCI-H23 = test system: NCI-H23
NCI-H460 = test system: NCI-H460
NCI/ADR-RES = test system: NCI/ADR-RES
OVCAR-3 = test system: OVCAR-3
OVCAR-5 = test system: OVCAR-5
SK-MEL-2 = test system: SK-MEL-2
SN12C = test system: SN12C
SNB-75 = test system: SNB-75
SW-620 = test system: SW-620
U-251 = test system: U-251
A498 = test system: A498

Measured: GI50

CC1(c2ccccc2)CCN(C2CC2)CO1 (stereo not given)
inactive: A549 > 100 µM | ACHN 17.9 µM | CAKI-1 18.8 µM | HT-29 17.9 µM | Hs-578T 19.4 µM | M14 16.9 µM | MDA-MB-231 19.3 µM | MDA-N 15.1 µM | NCI-H23 33 µM | NCI-H460 14.9 µM | NCI/ADR-RES 20.7 µM | OVCAR-3 17.7 µM | OVCAR-5 17.5 µM | SK-MEL-2 > 100 µM | SN12C 16.8 µM | SNB-75 64.9 µM | SW-620 19 µM | U-251 > 100 µM

CN(C1=NCCO1)c1cccc2c1CCCC2
inactive: A498 3.71 µM | A549 4.26 µM | ACHN 3.18 µM | CAKI-1 3.6 µM | HT-29 2.43 µM | Hs-578T 8.15 µM | M14 2.23 µM | MDA-MB-231 1.73 µM | MDA-N 5.18 µM | NCI-H23 3.73 µM | NCI-H460 4.01 µM | NCI/ADR-RES 3.6 µM | OVCAR-5 3.9 µM | SK-MEL-2 4.09 µM | SN12C 3.08 µM | SW-620 > 10 µM | U-251 3.57 µM

NC(=O)CNC(=O)C1CC(O)CN1C(=O)C1CCCN1C(=O)OCc1ccccc1 (stereo not drawn) (Cbz-Pro-[Hyp]-Gly-NH2; configuration not given here)
inactive: A498 > 100 µM | A549 > 100 µM | ACHN > 100 µM | HT-29 > 100 µM | Hs-578T > 100 µM | M14 > 100 µM | MDA-MB-231 > 100 µM | MDA-N > 100 µM | NCI-H23 > 100 µM | NCI-H460 > 100 µM | NCI/ADR-RES > 100 µM | OVCAR-3 > 100 µM | OVCAR-5 > 100 µM | SK-MEL-2 > 100 µM | SN12C > 100 µM | SNB-75 > 100 µM | SW-620 > 100 µM | U-251 > 100 µM

Oc1nc(S)nc2c1CN(CCCN1CCOCC1)CN2
inactive: A498 > 100 µM | A549 38.6 µM | ACHN 29.2 µM | CAKI-1 30.4 µM | HT-29 35.9 µM | Hs-578T > 100 µM | M14 25.5 µM | MDA-MB-231 26.7 µM | MDA-N 43.6 µM | NCI-H23 22.4 µM | NCI-H460 25.9 µM | NCI/ADR-RES 37.8 µM | OVCAR-3 38.5 µM | OVCAR-5 > 100 µM | SK-MEL-2 19.9 µM | SN12C 46.7 µM | SW-620 32 µM | U-251 33.5 µM

O=[N+]([O-])c1ccc(Cl)cc1N/N=C/c1ccnc2ccccc12
inactive: A549 > 100 µM | ACHN > 100 µM | CAKI-1 > 100 µM | HT-29 > 100 µM | Hs-578T 52.4 µM | M14 > 100 µM | MDA-MB-231 > 100 µM | MDA-N > 100 µM | NCI-H23 > 100 µM | NCI-H460 > 100 µM | NCI/ADR-RES 53.3 µM | OVCAR-3 > 100 µM | SN12C > 100 µM | SNB-75 31.1 µM | SW-620 > 100 µM | U-251 17.5 µM

CC(=O)OCC1CCC(=C2C(=O)OC(C)(C)OC2=O)N1 (stereo not given)
inactive: A549 > 100 µM | CAKI-1 > 100 µM | HT-29 > 100 µM | Hs-578T > 100 µM | M14 > 100 µM | MDA-MB-231 > 100 µM | MDA-N > 100 µM | NCI-H23 > 100 µM | NCI-H460 > 100 µM | NCI/ADR-RES > 100 µM | OVCAR-3 > 100 µM | SK-MEL-2 > 100 µM | SN12C > 100 µM | SNB-75 > 100 µM | SW-620 > 100 µM | U-251 > 100 µM

CCOC1CC(C)N(C(=O)c2ccccc2)O1 (stereo not given)
inactive: A498 > 100 µM | A549 > 100 µM | ACHN > 100 µM | HT-29 > 100 µM | Hs-578T > 100 µM | M14 > 100 µM | MDA-MB-231 > 100 µM | MDA-N > 100 µM | NCI-H23 > 100 µM | NCI-H460 > 100 µM | NCI/ADR-RES > 100 µM | OVCAR-3 > 100 µM | OVCAR-5 > 100 µM | SN12C > 100 µM | SW-620 > 100 µM | U-251 > 100 µM

N=C(N)NS(=O)(=O)c1ccc(NNC(=O)c2cccc3c(O)c4ccccc4nc23)cc1
inactive: A549 38.7 µM | ACHN 21.1 µM | CAKI-1 34.6 µM | HT-29 21.6 µM | Hs-578T 63.2 µM | M14 17.4 µM | MDA-MB-231 37.6 µM | MDA-N 25.2 µM | NCI-H23 31.2 µM | NCI-H460 20.6 µM | NCI/ADR-RES 38.3 µM | OVCAR-3 24.1 µM | OVCAR-5 42.6 µM | SK-MEL-2 25.1 µM | SN12C 33.8 µM | SNB-75 30.7 µM | SW-620 32.7 µM | U-251 32.8 µM

O=[N+]([O-])c1ccc(/C=N/Nc2nc3ccccc3[nH]2)o1
inactive: A549 12.2 µM | CAKI-1 15.1 µM | HT-29 19.5 µM | Hs-578T 33.3 µM | M14 12.7 µM | MDA-MB-231 32.4 µM | MDA-N 7.57 µM | NCI-H23 16.2 µM | NCI-H460 17.5 µM | NCI/ADR-RES 24.6 µM | OVCAR-3 11.1 µM | OVCAR-5 23.1 µM | SN12C 15.7 µM | SNB-75 17.7 µM | SW-620 10.8 µM | U-251 34 µM

CCCCCCCCCCCCCC/C(C(=O)O)=C(\C)C(=O)O
inactive: A498 > 100 µM | A549 > 100 µM | ACHN > 100 µM | HT-29 > 100 µM | Hs-578T > 100 µM | M14 > 100 µM | MDA-MB-231 > 100 µM | MDA-N > 100 µM | NCI-H23 > 100 µM | NCI-H460 > 100 µM | NCI/ADR-RES 97.7 µM | OVCAR-3 > 100 µM | OVCAR-5 > 100 µM | SK-MEL-2 > 100 µM | SN12C > 100 µM | SNB-75 > 100 µM | SW-620 > 100 µM | U-251 > 100 µM

CC1=NN=C(N)NC1=CC(Sc1ccc(Cl)cc1)c1c(O)ccc2ccccc12 (stereo not given)
inactive: A498 18.7 µM | A549 28.9 µM | ACHN 5.16 µM | CAKI-1 23.7 µM | HT-29 20.5 µM | Hs-578T 5.25 µM | M14 11.9 µM | MDA-MB-231 21.1 µM | MDA-N 28.2 µM | NCI-H23 15.1 µM | NCI-H460 17.4 µM | NCI/ADR-RES 20.2 µM | OVCAR-5 23.1 µM | SK-MEL-2 5.02 µM | SN12C 19 µM | SNB-75 18.6 µM | SW-620 24.8 µM | U-251 18.3 µM

O=C1NC(=S)NC(=O)C1C(c1ccc([N+](=O)[O-])cc1)C1C(=O)NC(=S)NC1=O.c1ccncc1
inactive: A498 > 100 µM | A549 > 100 µM | ACHN > 100 µM | CAKI-1 > 100 µM | HT-29 > 100 µM | Hs-578T > 100 µM | M14 > 100 µM | MDA-MB-231 > 100 µM | MDA-N > 100 µM | NCI-H23 > 100 µM | NCI-H460 > 100 µM | NCI/ADR-RES > 100 µM | OVCAR-3 > 100 µM | OVCAR-5 > 100 µM | SK-MEL-2 > 100 µM | SN12C > 100 µM | SW-620 > 100 µM | U-251 > 100 µM

Cc1nn(C(=O)c2ccncc2)c2c1C(c1ccc([N+](=O)[O-])cc1)SC(=N)N2 (stereo not given)
inactive: A498 > 100 µM | A549 > 100 µM | ACHN > 100 µM | HT-29 > 100 µM | Hs-578T > 100 µM | M14 > 100 µM | MDA-MB-231 > 100 µM | MDA-N > 100 µM | NCI-H23 > 100 µM | NCI-H460 > 100 µM | NCI/ADR-RES > 100 µM | OVCAR-3 > 100 µM | OVCAR-5 > 100 µM | SK-MEL-2 > 100 µM | SN12C > 100 µM | SNB-75 > 100 µM | SW-620 > 100 µM | U-251 > 100 µM

c1cc(-c2ccc(-c3ccc(-c4ccc(-c5cccc6nsnc56)[nH]4)c4nsnc34)[nH]2)c2nsnc2c1
inactive: A549 > 100 µM | ACHN > 100 µM | HT-29 > 100 µM | Hs-578T > 100 µM | M14 > 100 µM | MDA-MB-231 > 100 µM | MDA-N > 100 µM | NCI-H23 > 100 µM | NCI-H460 > 100 µM | NCI/ADR-RES > 100 µM | OVCAR-3 > 100 µM | OVCAR-5 > 100 µM | SK-MEL-2 > 100 µM | SN12C > 100 µM | SNB-75 > 100 µM | SW-620 > 100 µM | U-251 > 100 µM

C1CCNCC1.O=C1NC(=S)N/C1=C/c1ccccc1O
inactive: A549 > 100 µM | ACHN > 100 µM | CAKI-1 > 100 µM | HT-29 > 100 µM | Hs-578T 26.4 µM | M14 > 100 µM | MDA-MB-231 > 100 µM | MDA-N > 100 µM | NCI-H23 > 100 µM | NCI/ADR-RES > 100 µM | OVCAR-3 > 100 µM | OVCAR-5 > 100 µM | SK-MEL-2 > 100 µM | SN12C > 100 µM | SW-620 > 100 µM | U-251 > 100 µM

Nc1nonc1-c1noc(-c2nonc2N)[n+]1[O-]
inactive: A498 > 100 µM | A549 30.3 µM | ACHN 33.8 µM | CAKI-1 18.4 µM | HT-29 16 µM | Hs-578T > 100 µM | M14 29.6 µM | MDA-MB-231 > 100 µM | MDA-N 69.7 µM | NCI-H23 77.4 µM | NCI-H460 62.7 µM | NCI/ADR-RES 69.2 µM | OVCAR-5 33.7 µM | SK-MEL-2 > 100 µM | SN12C > 100 µM | SW-620 27 µM | U-251 > 100 µM
